Each structure is given as a SMILES string. Where two headings read alike, the source gives them in different places.

This is an account of results in EP0381335A1, “Antiviral agent and novel nucleoside” (TANABE SEIYAKU CO., LTD., priority 1989, dated 1990).

One series has as its system HIV. Nature of the series: Anti-HIV assay: protection of HIV-infected MT-4 cells against cytopathic effect (trypan blue exclusion / MTT method). It is filed as cell-based. As to the method: (§1) The anti-HIV activity of the agents that are subject of the present invention was measured according to the method of E. De Clercq et al. (The Journal of Virological Methods, 16 : 171 - 185 (1987) and The Journal of Virological Methods, 20 : 309-321 (1988)).
(§2) MT-4 cells of a 24 hours-old culture were suspended at 5 x 10⁵ cells per ml. Of this suspension, 2-ml portions were divided over polyisopropylene 2059 Falcon culture tubes (Becton Dickinson). The MT-4 cell suspensions were then centrifuged for 10 min at 140 x g and the supernatants were discarded. The MT-4 cell pellets were infected with 200 µl of a 1:5 HIV stock solution (titer 10³ CCID₅₀ ml; i.e., finally 10 CCID₅₀ well) in RPMI medium (composition as described above). Control MT-4 cell pellets were mock-infected with 200 µl RPMI medium. The culture tubes were then capsulated and subsequently incubated at 37 °C for 1.5 hours, upon which 1.8 ml of RPMI medium was added to each tube. The HIV-infected and mock-infected MT-4 cells were each pooled in two 45-ml centrifuge tubes.
(§3) Varying dilutions of the test compounds in RPMI medium were added in 100-µl volumes to the wells of a flat bottom, 96-well plastic microtiter tray (Sterilin Ltd. Teddington, Middlesex, England).
(§4) Of the HIV-infected or mock-infected MT-4 cell suspensions 100-µl volumes were added to the wells. The cell cultures were then incubated at 37 °C in a 5 % CO₂/95 % air humidified atmosphere. The cells remained in contact with the test compounds during the whole incubation period. Five days after infection the viability of the cells was examined microscopically in a hematocytometer by the trypan blue dye exclusion method.
(§5) Alternatively, viability of the cells was determined by the tetrazolium-based colorimetric method (MTT method) as described in the Journal of Virological Methods, 20 : 309 - 321 (1988).
(§6) Flat bottom, 96-well plastic mictrotiter trays (Falcon, Becton Dickinson, Mountain View, CA) were filled with 100 µl of complete medium using a Titertek® Multidrop dispenser (Flow Laboratories). This eight-channel dispenser could fill a microtiter tray in less than 10 s. Subsequently, stock solutions (10 x final test concentration) of compounds were added in 25 µl volumes to two series of triplicate wells so as to allow simultaneous evaluation of their effects on HIV- and mock-infected cells. Serial five-fold dilutions were made directly in the microtiter trays using an eight-channel Titertek® pipette (FLow Laboratories). Untreated control HIV- and mock-infected cell samples were included for each compound.
(§7) Exponentially growing MT-4 cells were centrifuged for 10 min at 140 x g and the supernatants were discarded. The pellet was either infected with 100 CCID₅₀ or mock-infected. The MT-4 cells were resuspended at 4 x 10⁵ cells/ml in two flasks which were connected with an autoclavable dispensing cassette of a Titertek® Multidrop dispenser. Under slight magnetic stirring 100-µl volumes were then transferred to the microtiter tray wells. The outer row wells were filled with 100 µl of medium. The cell cultures were incubated at 37 °C in a humidified atmosphere of 5 % CO₂ in air. The cells remained in contact with the test compounds during the whole incubation period. Five days after infection the viability of mock- and HIV infected cells was examined either microscopically in a hemacytometer by the trypan blue exclusion method or spectrophotometrically by the MTT method.
(§8) The MTT method is based on the reduction of the yellow coloured 3-(4,5-dimethylthiazol-2-yl)-2,5-diphenyltetrazolium bromide (MTT) (Sigma Chemical Co., St. Louis, MO) by mitochondrial dehydrogenases of metabolically active cells to a blue formazan which can be measured spectrophotometrically. Therefore, to each well of the microtiter trays, 20 µl of a solution of MTT (7.5 mg/ml) in phosphate-buffered saline was added using the Titertek® Multidrop. The trays were further incubated at 37 °C in a CO₂ incubator for the indicated times. […]
Background: Protection from cytopathic effect is a common read-out in antiviral testing.

The next series relates to MT-4 cells. In words: Cytotoxicity in mock-infected MT-4 cells (trypan blue exclusion / MTT method). It is filed as cell-based. As to conditions: for HIV (µM) TD₅₀: human, 5 days. On the procedure: as §1, §2, §3, §4, §5, §6, §7, §8
A general note: Tetrazolium dyes change colour on reduction, which living cells bring about.

Setting [1] is: Human immunodeficiency virus 1, MT4, effective amount necessary for permitting the cells infected with HIV to live to the 5th day after infection, read-out: ED₅₀.
The mark [2] stands for this setting: Human immunodeficiency virus 1, MT4, 120 h, HIV-infected MT-4 cells, five days after infection, MTT method, dose achieving 50 % protection, read-out: HIV (µM) ED₅₀.

`NO[C@H]1C[C@H](n2ccc(N)nc2=O)O[C@@H]1CO` [3′-O-amino-2′-deoxycytidine]: in the series with HIV (setting [1]), the EC50 stood at 61 µM. Moreover, the cytotoxicity result in the series on MT-4 cells (at the concentration of 500 µM) is given as “no cytotoxicity appeared”.
As for `Cc1cn([C@H]2C[C@H](ON)[C@@H](CO)O2)c(=O)[nH]c1=O` [3′-O-aminothymidine], the EC50 in the series with HIV (setting [1]) was 23 µM. Besides, the cytotoxicity result in the series on MT-4 cells (at the concentration of 125 µM) is “only slight cytotoxicity appeared”.
For the compound `Cc1cn([C@H]2C[C@H](ONC=O)[C@@H](CO)O2)c(=O)[nH]c1=O` [compound 1, 3′-O-formamidothymidine], the EC50 with HIV (setting [2]) came to 13 µM. For the same compound, the “HIV (µM) TD₅₀” value in the series on MT-4 cells was found to be 144 µM.
Take `C=NO[C@H]1C[C@H](n2cc(C)c(=O)[nH]c2=O)O[C@@H]1CO` [compound 2, 3′-O-methylideneaminothymidine]: the EC50 with HIV (setting [2]) came to 17 µM. In addition, the “HIV (µM) TD₅₀” value with MT-4 cells came out at 106 µM.
On the same counts, the results for `CC(C)=NO[C@H]1C[C@H](n2cc(C)c(=O)[nH]c2=O)O[C@@H]1CO` [compound 3, 3′-O-isopropylideneaminothymidine] are 32 µM and 313 µM.
For the compound `NO[C@H]1C[C@H](n2cnc3c(N)ncnc32)O[C@@H]1CO` [compound 4, 9-(3-O-amino-2-deoxy-β-D-erythro-pentofuranosyl)adenine], the EC50 in the series on HIV (setting [2]) and with HIV (setting [1]) was 32 µM in each case. The “HIV (µM) TD₅₀” value in the series on MT-4 cells came to 1000 µM.
Regarding `NO[C@H]1C[C@H](n2cnc3c(=O)[nH]c(N)nc32)O[C@@H]1CO` [compound 5, 9-(3-O-amino-2-deoxy-β-D-erythro-pentofuranosyl)guanine], in the series with HIV (setting [2]), the EC50 worked out at 2.17 µM. Further, the “HIV (µM) TD₅₀” value in the series with MT-4 cells was 74.03 µM.
